Positions of bridges follow the written chain, without caps; N, C: chain ends. Non-standard residues stand in square brackets, D forms with d. Residues, ends and D or L forms follow the SMILES beside them. *: point of attachment. Phe(4-CF3) = N[C@@H](Cc1ccc(C(F)(F)F)cc1)C(=O)O; NMePhe(3-Cl) = CN[C@@H](Cc1cccc(Cl)c1)C(=O)O; NMeF = CN[C@@H](Cc1ccccc1)C(=O)O; NMeI = CC[C@H](C)[C@H](NC)C(=O)O; 3Pal = N[C@@H](Cc1cccnc1)C(=O)O; NMeD = CN[C@@H](CC(=O)O)C(=O)O; NMeL = CN[C@@H](CC(C)C)C(=O)O; NMeV = CN[C@H](C(=O)O)C(C)C; NMeA = CN[C@@H](C)C(=O)O; Piperidide = C1CCN(*)CC1; Abu = CC[C@H](N)C(=O)O; NPrGly = CCCNCC(=O)O; Sar = CNCC(=O)O; tBu = CC(C)(C)*

The nature of one series: Caco-2 membrane permeability, improved method as used in the following Examples (96-well, 20 to 24 h preincubation). It counts as in vitro ADME. The note with it: human, Caco-2, Caco-2 (cm/sec). Summed up:
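Papp (cm/sec) was derived from LC/MS of basal samples collected 180 min after apical dosing in FaSSIF/HBSS pH 6.0 with 1% DMSO, against a basal HBSS pH 7.4 receiver containing 4% BSA. Three-week Caco-2 cultures were first preincubated with compound in DMEM+FaSSIF at 37 °C for 20–24 h.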
(In general: Passage across Caco-2 layers is used to estimate intestinal permeability.)
`CC(C)C[C@@H]1NC(=O)[C@H](CC(C)C)N(C)C(=O)[C@H](C(C)C)NC(=O)C[C@@H](C(=O)N2CCCCC2)NC(=O)[C@H](CC(C)C)N(C)C(=O)[C@H](Cc2ccccc2)N(C)C(=O)[C@H]([C@@H](C)O)NC(=O)[C@H](Cc2ccc(C(F)(F)F)cc2)NC(=O)[C@H](C)N(C)C1=O` [pd145] (V[NMeL]L[NMeA][Phe(4-CF3)]T[NMeF][NMeL]D-Piperidide; lactam N-9) had a Papp A→B at 180 min of 1.2 ×10⁻⁶ cm/s. Turning to `CC(C)C[C@@H]1NC(=O)[C@H](CC(C)C)N(C)C(=O)[C@H](CC(C)C)N(C)C(=O)CN(C)C(=O)[C@H]([C@@H](C)O)NC(=O)[C@H](CC(C)C)N(C)C(=O)[C@H](CC(C)C)N(C)C(=O)[C@H](Cc2ccc(C(F)(F)F)cc2)NC(=O)[C@@H](C(C)C)NC(=O)C[C@@H](C(=O)N2CCCCC2)NC1=O` [pd148] ([dV][Phe(4-CF3)][NMeL][NMeL]T[Sar][NMeL][NMeL]LD-Piperidide; lactam N-10), the Papp A→B at 180 min was 1.1 ×10⁻⁶ cm/s. As to `CC(C)C[C@@H]1NC(=O)[C@H](CC(C)C)N(C)C(=O)[C@@H](C)NC(=O)C[C@@H](C(=O)N2CCCCC2)N(C)C(=O)[C@H](CC(C)C)N(C)C(=O)[C@H]([C@@H](C)O)NC(=O)[C@H](CC(C)C)N(C)C(=O)[C@H](Cc2ccc(C(F)(F)F)cc2)NC1=O` [pd149] ([dA][NMeL]L[Phe(4-CF3)][NMeL]T[NMeL][NMeD]-Piperidide; lactam N-8), the Papp A→B at 180 min is 1.7 ×10⁻⁶ cm/s.

Turning to `CC(C)C[C@H]1C(=O)N(C)CC(=O)N[C@@H](Cc2ccccc2)C(=O)N[C@@H](Cc2ccc(C(F)(F)F)cc2)C(=O)N(C)[C@@H](CC(C)C)C(=O)N(C)[C@@H](CC(C)C)C(=O)N[C@@H]([C@@H](C)O)C(=O)N(C)[C@H](C(=O)N2CCCCC2)CC(=O)N1C` [pd150] ([NMeL][Sar]F[Phe(4-CF3)][NMeL][NMeL]T[NMeD]-Piperidide; lactam N-8), the Papp A→B at 180 min is 1.7 ×10⁻⁶ cm/s.

Consider `CC(C)C[C@@H]1NC(=O)C[C@@H](C(=O)N2CCCCC2)N(C)C(=O)[C@H](Cc2ccc(C(F)(F)F)cc2)NC(=O)[C@H](CC(C)C)N(C)C(=O)CN(C)C(=O)[C@H]([C@@H](C)O)NC(=O)[C@H](CC(C)C)N(C)C(=O)[C@H](CC(C)C)N(C)C1=O` [pd151] (L[NMeL][NMeL]T[Sar][NMeL][Phe(4-CF3)][NMeD]-Piperidide; lactam N-8), for which the Papp A→B at 180 min was determined as 3.2 ×10⁻⁶ cm/s. With `CCCN1CC(=O)N(C)[C@@H](CC(C)C)C(=O)N[C@@H](COC(C)(C)C)C(=O)N[C@H](C(=O)N2CCCCC2)CC(=O)N(C)[C@@H](CC(C)C)C(=O)N[C@@H](Cc2ccc(C(F)(F)F)cc2)C(=O)N(C)[C@@H](CC(C)C)C(=O)N(C)[C@@H]([C@@H](C)CC)C(=O)N[C@@H]([C@@H](C)O)C1=O` [pd152] ([NMeL][Phe(4-CF3)][NMeL][NMeI]T[NPrGly][NMeL]S(tBu)D-Piperidide; lactam N-9), the Papp A→B at 180 min came to 1.2 ×10⁻⁶ cm/s. For the compound `CC(C)C[C@@H]1NC(=O)C[C@@H](C(=O)N2CCCCC2)NC(=O)[C@H](CC(C)C)N(C)C(=O)[C@H](CC(C)C)N(C)C(=O)[C@H](Cc2ccc(C(F)(F)F)cc2)NC(=O)[C@H](CC(C)C)N(C)C(=O)[C@H]([C@@H](C)O)NC(=O)[C@H](CC(C)C)N(C)C(=O)[C@H](C)N(C)C1=O` [pd153] (L[NMeA][NMeL]T[NMeL][Phe(4-CF3)][NMeL][NMeL]D-Piperidide; lactam N-9), the Papp A→B at 180 min is 1.4 ×10⁻⁶ cm/s.

Compound `CC(C)C[C@H]1C(=O)N[C@@H](COC(C)(C)C)C(=O)N(C)[C@@H](Cc2ccccc2)C(=O)N(C)[C@@H](CC(C)C)C(=O)N[C@H](C(=O)N2CCCCC2)CC(=O)N[C@@H](C)C(=O)N(C)[C@@H](Cc2cccc(Cl)c2)C(=O)N[C@@H](C(C)C)C(=O)N(C)[C@@H](C(C)C)C(=O)N[C@@H]([C@@H](C)O)C(=O)N(C)CC(=O)N1C` [pd154] (A[NMePhe(3-Cl)]V[NMeV]T[Sar][NMeL]S(tBu)[NMeF][NMeL]D-Piperidide; lactam N-11) showed a Papp A→B at 180 min of 1.4 ×10⁻⁶ cm/s. The compound `CC(C)C[C@H]1C(=O)N[C@@H](COC(C)(C)C)C(=O)N(C)[C@@H](Cc2ccccc2)C(=O)N(C)[C@@H](CC(C)C)C(=O)N[C@H](C(=O)N2CCCCC2)CC(=O)N2CCC[C@@H]2C(=O)N(C)[C@@H](Cc2cccc(Cl)c2)C(=O)N[C@@H](C(C)C)C(=O)N(C)[C@@H](C(C)C)C(=O)N[C@@H]([C@@H](C)O)C(=O)N(C)CC(=O)N1C` [pd155] ([dP][NMePhe(3-Cl)]V[NMeV]T[Sar][NMeL]S(tBu)[NMeF][NMeL]D-Piperidide; lactam N-11) showed a Papp A→B at 180 min of 2.1 ×10⁻⁶ cm/s. `CC(C)C[C@H]1C(=O)N[C@@H](COC(C)(C)C)C(=O)N(C)[C@@H](Cc2ccccc2)C(=O)N(C)[C@@H](CC(C)C)C(=O)N[C@H](C(=O)N2CCCCC2)CC(=O)N2CCC[C@H]2C(=O)N(C)[C@@H](Cc2cccc(Cl)c2)C(=O)N[C@@H](C(C)C)C(=O)N(C)[C@@H](C(C)C)C(=O)N[C@@H]([C@@H](C)O)C(=O)N(C)CC(=O)N1C` [pd156] (P[NMePhe(3-Cl)]V[NMeV]T[Sar][NMeL]S(tBu)[NMeF][NMeL]D-Piperidide; lactam N-11) gave a Papp A→B at 180 min of 2.9 ×10⁻⁶ cm/s. As for `CC(C)C[C@@H]1NC(=O)[C@H](Cc2cccc(Cl)c2)N(C)C(=O)[C@@H](C)NC(=O)C[C@@H](C(=O)N2CCCCC2)NC(=O)[C@H](CC(C)C)N(C)C(=O)[C@H](Cc2ccccc2)N(C)C(=O)[C@H](COC(C)(C)C)NC(=O)[C@H](C(C)C)N(C)C(=O)CN(C)C(=O)[C@H]([C@@H](C)O)NC(=O)[C@H](CC(C)C)N(C)C1=O` [pd157] ([dA][NMePhe(3-Cl)]L[NMeL]T[Sar][NMeV]S(tBu)[NMeF][NMeL]D-Piperidide; lactam N-11), the Papp A→B at 180 min was 2.2 ×10⁻⁶ cm/s.

As to `CC[C@H](C)[C@@H]1NC(=O)[C@H](Cc2ccccc2)N(C)C(=O)CN(C)C(=O)C[C@@H](C(=O)N2CCCCC2)NC(=O)[C@H](C(C)C)N(C)C(=O)[C@H](COC(C)(C)C)NC(=O)[C@H](CC(C)C)N(C)C(=O)[C@H](Cc2cccc(Cl)c2)N(C)C(=O)CN(C)C(=O)[C@H]([C@@H](C)O)NC(=O)[C@H](CC(C)C)N(C)C1=O` [pd158] ([Sar][NMeF]I[NMeL]T[Sar][NMePhe(3-Cl)][NMeL]S(tBu)[NMeV]D-Piperidide; lactam N-11), the Papp A→B at 180 min turned out to be 1.4 ×10⁻⁶ cm/s. In turn, `CC(C)C[C@H]1C(=O)N[C@@H](COC(C)(C)C)C(=O)N(C)[C@@H](Cc2ccccc2)C(=O)N(C)[C@@H](CC(C)C)C(=O)N(C)[C@H](C(=O)N2CCCCC2)CC(=O)N[C@H](C)C(=O)N(C)[C@@H](Cc2cccc(Cl)c2)C(=O)N[C@@H](C(C)C)C(=O)N(C)[C@@H](C(C)C)C(=O)N[C@@H]([C@@H](C)O)C(=O)N(C)CC(=O)N1C` [pd159] ([dA][NMePhe(3-Cl)]V[NMeV]T[Sar][NMeL]S(tBu)[NMeF][NMeL][NMeD]-Piperidide; lactam N-11) showed a Papp A→B at 180 min of 1.8 ×10⁻⁶ cm/s.

The compound `CC(C)C[C@H]1C(=O)N[C@@H](COC(C)(C)C)C(=O)N(C)[C@@H](Cc2ccccc2)C(=O)N(C)[C@@H](CC(C)C)C(=O)N(C)[C@H](C(=O)N2CCCCC2)CC(=O)N[C@@H](C)C(=O)N(C)[C@@H](Cc2cccc(Cl)c2)C(=O)N[C@@H](C(C)C)C(=O)N(C)[C@@H](C(C)C)C(=O)N[C@@H]([C@@H](C)O)C(=O)N(C)CC(=O)N1C` [pd160] (A[NMePhe(3-Cl)]V[NMeV]T[Sar][NMeL]S(tBu)[NMeF][NMeL][NMeD]-Piperidide; lactam N-11) had a Papp A→B at 180 min of 3.4 ×10⁻⁶ cm/s. On to `CC(C)C[C@@H]1NC(=O)[C@H](C)N(C)C(=O)C[C@@H](C(=O)N2CCCCC2)NC(=O)[C@H](CC(C)C)N(C)C(=O)CN(C)C(=O)[C@H]([C@@H](C)O)NC(=O)[C@H](CC(C)C)N(C)C(=O)[C@H](Cc2cccc(Cl)c2)N(C)C(=O)[C@H](C)NC(=O)[C@H](Cc2ccccc2)N(C)C(=O)[C@H](CC(C)C)N(C)C1=O` [pd161] ([NMeA]L[NMeL][NMeF]A[NMePhe(3-Cl)][NMeL]T[Sar][NMeL]D-Piperidide; lactam N-11), for which the Papp A→B at 180 min amounted to 1.4 ×10⁻⁶ cm/s. `CC[C@@H]1NC(=O)[C@H](C(C)C)N(C)C(=O)[C@@H](C(C)C)NC(=O)C[C@@H](C(=O)N2CCCCC2)NC(=O)[C@H](CC(C)C)N(C)C(=O)[C@H](Cc2cccc(Cl)c2)N(C)C(=O)[C@H](COC(C)(C)C)NC(=O)[C@H](CC(C)C)N(C)C(=O)CN(C)C(=O)[C@H](Cc2cccnc2)NC(=O)[C@H](CC(C)C)N(C)C1=O` [pd164] ([dV][NMeV][Abu][NMeL][3Pal][Sar][NMeL]S(tBu)[NMePhe(3-Cl)][NMeL]D-Piperidide; lactam N-11) yielded a Papp A→B at 180 min of 1.6 ×10⁻⁶ cm/s.

The same series, now with this note: human, Caco-2, improved method, preincubation 20 to 24 hours; Papp, sample at 180 minutes; read-out: Caco-2.
`CCCN1CC(=O)N[C@@H]([C@@H](C)O)C(=O)N[C@H](C(=O)N2CCCCC2)CC(=O)N(C)[C@@H](CC(C)C)C(=O)N[C@@H](Cc2ccc(C(F)(F)F)cc2)C(=O)N(C)[C@@H](CC(C)C)C(=O)N(C)[C@@H](CC(C)C)C(=O)N[C@@H](COC(C)(C)C)C1=O` [pd147] ([NMeL][Phe(4-CF3)][NMeL][NMeL]S(tBu)[NPrGly]TD-Piperidide; lactam N-8): the Papp A→B at 180 min is 1.9 ×10⁻⁶ cm/s.

Still in this series, the particulars now being: human, Caco-2; read-out: Caco-2.
Regarding `CC(C)C[C@@H]1NC(=O)[C@H](CC(C)C)N(C)C(=O)[C@H](C(C)C)NC(=O)C[C@@H](C(=O)N2CCCCC2)NC(=O)[C@H](CC(C)C)N(C)C(=O)[C@H]([C@@H](C)O)NC(=O)[C@H](Cc2ccc(C(F)(F)F)cc2)NC(=O)[C@H](CC(C)C)N(C)C(=O)[C@H](C)N(C)C1=O` [pd146] (V[NMeL]L[NMeA][NMeL][Phe(4-CF3)]T[NMeL]D-Piperidide; lactam N-9), the Papp A→B at 180 min came to 1.7 ×10⁻⁶ cm/s.

Source of the values: US20200131669A1, “CYCLIC PEPTIDE COMPOUND HAVING HIGH MEMBRANE PERMEABILITY, AND LIBRARY CONTAINING SAME” (Chugai Seiyaku Kabushiki Kaisha, priority 2017, published 2020).
